In PMC7956476, “Quinoline Functionalized Schiff Base Silver (I) Complexes: Interactions with Biomolecules and In Vitro Cytotoxicity, Antioxidant and Antimicrobial Activities” (Molecules, 2021):

Assays:
[1] = Ferric reducing antioxidant power (FRAP) assay; assay type: biochemical; conditions: done in triplicate
calf thymus DNA (CT-DNA) = assay: CT-DNA electronic absorption titration (Wolfe–Shimer); assay type: binding; conditions: intrinsic binding constant, absorption titration, PBS pH 7.2
CT-DNA-EB adduct = assay: Fluorescence competitive displacement of ethidium bromide from CT-DNA; assay type: binding, calf; conditions: for CT-DNA-EB-Complex Ksv (M^−1) × 10^4: Stern–Volmer quenching constant, EB displacement, 25 °C; for CT-DNA-EB-Complex Kq (M^−1S^−1) × 10^12: bimolecular quenching constant, Ksv = Kqτo, τo 10^−8 s; for CT-DNA-EB-Complex Kbin (M^−1) × 10^5: binding constant from double-logarithmic plot
Summary of the method: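 CT-DNA (15 µM) was pre-equilibrated 30 min with ethidium bromide (15 µM) in phosphate buffer pH 7.2, then titrated with complexes (0–20 µM) at 8-min intervals at room temperature. EB emission was recorded at 530–700 nm (excitation 525 nm, 25 °C), and quenching was analysed by Stern–Volmer to give Ksv and Kq (τo taken as 10^−8 s).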

[2] = test system: breast cancer cell line (MDA-MB231); assay: Cytotoxicity assay (CellTiter 96 AQueous One Solution, 72 h); assay type: cell-based, human; conditions: EC50 in HEK293 over EC50 in MDA-MB231
Method: (§1) In vitro cell viability with cultured cells is a method commonly used for cytotoxicity activities of potential anticancer compounds due to reduced cost speed, and potential for automation, and tests using human cells other than some in vivo animal tests. […] The cytotoxicity assay was conducted as per the standard method and as described by Abrahams et al. 2018 [111]. […] The plate was then incubated for 72 h at 37 °C and 5% CO2. To each well, 20 µL CellTiter 96 AQueous One Solution (Promega, Madison, WI, USA) was added and the plates were incubated for 4 h as previously described. Thereafter, absorbance was read at 490 nm on a multiplate reader (Molecular Devices, San Jose, CA, USA). […] The values recorded are averages of at least three separate experiments (n = 3).

[3] = test system: cervical cancer cell line (HELA); assay: as above; assay type: cell-based, human; conditions: EC50 in HEK293 over EC50 in HELA
Method: as §1

[4] = test system: neuronal cancer cell line (SHSY5Y); assay: as above; assay type: cell-based, human; conditions: EC50 in HEK293 over EC50 in SHSY5Y
Method: as §1

## [Ag+].[O-][Cl+3]([O-])([O-])[O-].c1ccc2nc(-c3nc4ccccc4s3)ccc2c1.c1ccc2nc(-c3nc4ccccc4s3)ccc2c1 [Complex Q7, [Ag(L2)2]ClO4]
[1]
  Antioxidant (IC50 mg/mL) FRAP: 1.13 ± 0.044 mg/mL
Calf thymus DNA (CT-DNA)
  CT-DNA-Cmp. Kb (M^−1) × 10^5: 15.0 (M^−1) × 10^5
CT-DNA-EB adduct
  CT-DNA-EB-Complex Ksv (M^−1) × 10^4: 3.96 (M^−1) × 10^4
  CT-DNA-EB-Complex Kq (M^−1S^−1) × 10^12: 3.96 (M^−1S^−1) × 10^12
  CT-DNA-EB-Complex Kbin (M^−1) × 10^5: 1.29 (M^−1) × 10^5
[2]
  Selectivity Index (SI) MDA-MB231: 2.40
[3]
  Selectivity Index (SI) HELA: 4.39
[4]
  Selectivity Index (SI) SHSY5Y: 3.30

## Cc1ccc(N=Cc2ccc3ccccc3n2)cc1.Cc1ccc(N=Cc2ccc3ccccc3n2)cc1.[Ag+].[O-][Cl+3]([O-])([O-])[O-] [Complex Q9, [Ag(L4)2]ClO4]
[1]
  Antioxidant (IC50 mg/mL) FRAP: 1.62 ± 0.078 mg/mL
Calf thymus DNA (CT-DNA)
  CT-DNA-Cmp. Kb (M^−1) × 10^5: 5.00 (M^−1) × 10^5
CT-DNA-EB adduct
  CT-DNA-EB-Complex Ksv (M^−1) × 10^4: 2.49 (M^−1) × 10^4
  CT-DNA-EB-Complex Kq (M^−1S^−1) × 10^12: 2.49 (M^−1S^−1) × 10^12
  CT-DNA-EB-Complex Kbin (M^−1) × 10^5: 6.53 (M^−1) × 10^5
[2]
  Selectivity Index (SI) MDA-MB231: 2.57
[3]
  Selectivity Index (SI) HELA: 4.48
[4]
  Selectivity Index (SI) SHSY5Y: 2.12
